Key:
[1] = test system: panel of melanoma cell lines (A375, M14, RPMI7951); assay: Antiproliferative activity, panel of melanoma cell lines; assay type: cell-based, human; conditions: for IC50: Homo sapiens, 72 h, read-out: IC50 values, range over the melanoma cell lines
[2] = target: Bovine brain tubulin (Bos taurus, UniProt P81947+Q6B856); assay: Tubulin polymerization assay; assay type: biochemical; conditions: 10 μM compound, absorbance at 340 nm, 37 °C; vehicle control Vmax = 27
[3] = test system: A375 melanoma xenograft; assay type: in vivo; conditions: doses up to 30 mg/kg i.p., nude mice
[4] = test system: docetaxel-resistant DU145/TxR prostate cancer cell line; assay: Cytotoxicity; assay type: cell-based; conditions: at concentrations up to 1 μM

Sequence of Bovine brain tubulin (Q6B856 whole entry): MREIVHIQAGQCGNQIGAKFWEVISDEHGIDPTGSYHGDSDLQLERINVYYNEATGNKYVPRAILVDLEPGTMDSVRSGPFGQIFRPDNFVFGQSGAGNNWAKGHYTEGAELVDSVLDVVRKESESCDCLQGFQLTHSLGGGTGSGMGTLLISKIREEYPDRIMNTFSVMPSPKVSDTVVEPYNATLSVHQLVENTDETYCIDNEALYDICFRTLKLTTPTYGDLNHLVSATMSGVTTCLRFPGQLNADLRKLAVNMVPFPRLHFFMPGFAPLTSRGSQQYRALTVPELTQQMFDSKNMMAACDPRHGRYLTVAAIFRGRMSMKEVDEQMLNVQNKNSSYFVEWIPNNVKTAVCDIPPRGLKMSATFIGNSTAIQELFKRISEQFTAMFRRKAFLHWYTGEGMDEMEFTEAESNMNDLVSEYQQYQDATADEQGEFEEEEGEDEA
Sequence of Bovine brain tubulin (P81947 whole entry): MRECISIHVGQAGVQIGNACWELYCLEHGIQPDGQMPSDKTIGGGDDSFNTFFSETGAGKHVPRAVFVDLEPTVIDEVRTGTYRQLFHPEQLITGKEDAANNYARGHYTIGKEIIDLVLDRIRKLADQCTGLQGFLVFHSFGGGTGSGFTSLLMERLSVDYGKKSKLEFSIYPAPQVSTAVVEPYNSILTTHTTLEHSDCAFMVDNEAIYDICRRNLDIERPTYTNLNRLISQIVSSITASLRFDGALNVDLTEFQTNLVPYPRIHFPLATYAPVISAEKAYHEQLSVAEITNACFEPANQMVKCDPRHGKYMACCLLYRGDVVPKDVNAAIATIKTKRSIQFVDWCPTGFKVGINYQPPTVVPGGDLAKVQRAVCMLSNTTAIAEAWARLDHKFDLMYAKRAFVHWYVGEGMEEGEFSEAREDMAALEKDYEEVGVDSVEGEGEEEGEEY

Row | IC50 [1] [nM] | SMILES | also measured
1 | 119 to 218 | O=C(c1ccc2c(c1)OCCO2)c1c[nH]c(-c2c[nH]c3ccccc23)n1 [13a, (2-(1H-Indol-3-yl)-1H-imidazol-5-yl)(2,3-dihydrobenzo[b][1,4]-dioxin-6-yl)methanone] | –
2 | 11.3 to 29.2 | COc1cc(C(=O)c2c[nH]c(-c3c[nH]c4ccccc34)n2)cc2c1OCCO2 [13c, (2-(1H-Indol-3-yl)-1H-imidazol-5-yl)(8-methoxy-2,3-dihydrobenzo[b][1,4]dioxin-6-yl)methanone] | –
3 | 3.5 to 5.6 | COc1cc(C(=O)c2c[nH]c(-c3c[nH]c4ccccc34)n2)cc2c1OCO2 [13d, (2-(1H-Indol-3-yl)-1H-imidazol-5-yl)(7-methoxybenzo[d][1,3]-dioxol-5-yl)methanone] | fold more active than 13b ([1]; antiproliferative IC50 compared with 13b): 30 fold; fold more potent than 13c ([1]; antiproliferative IC50 compared with 13c): ~ 4 fold
4 | 32.2 to 47.7 | COc1cc(C(=O)c2c[nH]c(-c3c[nH]c4ccccc34)n2)cc2c1OCCCO2 [13e, (2-(1H-Indol-3-yl)-1H-imidazol-5-yl)(9-methoxy-3,4-dihydro-2H-benzo[b][1,4]dioxepin-7-yl)methanone] | –

Second part, the compound before the results:

Row | SMILES | IC50 [1] [nM] | also measured
5 | COc1cc(C(=O)c2c[nH]c(-c3c[nH]c4ccccc34)n2)cc2c1OC=CO2 [13f, (2-(1H-Indol-3-yl)-1H-imidazol-5-yl)(8-methoxybenzo[b][1,4]-diOXin-6-yl)methanone] | 1.1 to 3.3 | tubulin polymerization Vmax [2]: 0; apparent toxicity (mouse weights and activities) [3]: without causing apparent toxicity
6 | COc1cc(C(=O)c2c[nH]c(-c3cccc4[nH]ccc34)n2)cc2c1OC=CO2 [compound 19, (2-(1H-Indol-4-yl)-1H-imidazol-5-yl)(8-methoxybenzo[b][1,4]-diOXin-6-yl)methanone] | – | fold reduced antiproliferative activity compared to 13f ([1]; compared with 13f): ~ 11 fold
7 | COc1cc(C(=O)c2c[nH]c(-c3c[nH]c4cccc(C)c34)n2)cc2c1OC=CO2 [compound 25, (8-Methoxybenzo[b][1,4]dioxin-6-yl) (2-(4-methyl-1H-indol-3-yl)-1H-imidazol-5-yl)methanone] | 6.1 to 8.8 | –
8 | CC(=O)O[C@H]1C(=O)[C@@]2(C)[C@H]([C@H](OC(=O)c3ccccc3)[C@]3(O)C[C@H](OC(=O)[C@H](O)[C@@H](NC(=O)c4ccccc4)c4ccccc4)C(C)=C1C3(C)C)[C@]1(OC(C)=O)CO[C@@H]1C[C@@H]2O [paclitaxel] | – | effect in DU145/TxR cells [4]: no effect was observed at all

— article PMC6637749 (Journal of medicinal chemistry, 2018)
